{
  "source": "patent US20150038541A1",
  "about": "“COMPOSITION AND METHODS FOR CELL MODULATION” (APOSIGNAL BIOSCIENCE LLC, priority 2012, published 2015)",
  "key": {"HeLa cells": {"tested_on": "HeLa cells", "test": "MTS cell viability of HeLa cells treated with anticancer drug with or without AS-7 (48 hours)", "assay_type": "cell-based, human", "conditions": "for Dose Reduction Index (DRI), combination of AS-7 with bortezomib: CalcuSyn", "protocol": "HeLa cells were seeded in a 96 well tissue culture plate (2000 cells per well). The compounds, 10 μM AS-7 and bortezomib (BioVision, Inc., Milpitas, Calif.) at the concentrations indicated in FIG. 1, were added the following day. AS-7 was prepared according to the Ugi reaction by combination of the four components: isocyanide (III), m-cyanobenzaldehyde (IV), 2-benzoylbenzoic acid (V), and histamine (VI) in refluxing methanol (Ref. http://www.occhem.com/synthesis/2561 2.html). The Medicinal Chemistry unit of Southern Research Institute (2000 Ninth Avenue South Birmingham, Ala. 35205) was contracted by a fee for service agreement to synthesize AS-7.\nAfter 48 hours, MTS (3-(4,5-dimethylthiazol-2-yl)-5-(3-carboxymethoxyphenyl)-2-(4-sulfophenyl)-2H-tetrazolium) was added and absorbance was measured at 490 nm. […] Values in FIG. 1 are relative to controls that contained only the vehicle in which the drugs were dissolved. Vehicle had no effect on cell viability. Error bars in FIG. 1 are not visible if they are smaller than the symbols. […]\n(§1) HeLa cells were seeded in a 96 well tissue culture plate (2000 cells per well). The compounds, 10 μM AS-7 and bortezomib at the concentrations indicated in FIG. 9 were added the following day. After 48 hours, MTS was added and absorbance was measured at 490 nm. […] Values are relative to controls that contained only the vehicle in which the drugs were dissolved. Vehicle had no effect on cell viability."}, "[1]": {"tested_on": "ovarian tumor derived IGROV cells", "test": "Crystal violet cell viability of ovarian IGROV cells, bortezomib with or without AS-7 (72 hours)", "assay_type": "cell-based", "conditions": "10 μM AS-7", "protocol": "(§2) Ovarian tumor-derived cell lines, IGROV and A2780, were seeded in a 96 well tissue culture plate (2000 cells per well). The compounds, 10 μM AS-7 and bortezomib (BioVision, Inc., Milpitas, Calif.) at the concentrations indicated in the figures, were added the following day. AS-7 was prepared as described in Example I above. […] Values are relative to cells that with the vehicle in which the drugs were dissolved. Vehicle had no effect on cell viability. Error bars in FIG. 6 and FIG. 7 are not shown if they are smaller than the symbols."}, "ovarian A2780 cells": {"tested_on": "ovarian A2780 cells", "test": "Crystal violet cell viability of ovarian A2780 cells, bortezomib with or without AS-7 (72 hours)", "assay_type": "cell-based, human", "conditions": "A2780 cells; 10 μM AS-7", "protocol": "as §2"}, "Melanoma A2620 cells": {"tested_on": "Melanoma A2620 cells", "test": "Crystal violet cell viability of melanoma A2620 cells, bortezomib with or without AS-7 (72 hours)", "assay_type": "cell-based, human", "conditions": "10 μM AS-7", "protocol": "as §1, with “Melanoma A2620 cells” for “HeLa cells”, “FIG. 8” for “FIG. 9”, “day.” for “day. After 48 hours, MTS was added and absorbance was measured at 490 nm.”"}, "159C cells": {"tested_on": "159C cells", "test": "MTS cell viability of breast cancer 159C cells, bortezomib with or without AS-7", "assay_type": "cell-based", "conditions": "10 μM AS-7, data not shown", "protocol": "Breast cancer derived cell lines, T47D and 159C, were seeded in a 96 well tissue culture plate (2000 cells per well). The significance of these two lines of breast cancer derived cell lines is that the T47D cells positive for three markers used to optimize the chemotherapeutic treatment, namely HER2 receptor, estrogen receptor, and progesterone receptor. By contrast to the T47D cells, the 159C cells are negative for the three markers. The compounds, 10 μM AS-7 and a range of bortezomib (BioVision, Inc., Milpitas, Calif.) concentrations were added the following day. After 48 hours, MTS was added and absorbance was measured at 490 nm."}, "breast T47D cells [2]": {"tested_on": "breast T47D cells", "test": "Cell proliferation (growth rate, crystal violet) of breast T47D cells with AS-7 by itself", "assay_type": "cell-based, human", "conditions": "10 μM AS-7, vehicle doubling time 1.4 days", "protocol": "To examine the effect of AS-7 on the growth of several different cell lines, AS-7 at 10 μM was added to the culture medium the day after seeding the cells. The following cell lines were used to determine the effect of AS-7 on the rate of proliferation: HeLa, melanoma A2620, ovarian A2780, and breast T47D. All cell line were grown in culture medium (RPMI 1640 for the breast cancer cells and Dulbecco's modified Eagle's medium for the other cell lines) containing 10% heat inactivated fetal bovine serum without antibiotics (penicillin and streptomycin). […] The doubling times in HeLa, melanoma, ovarian and breast cancer derived cells were 0.9, 2.5, 1.0, and 1.4 days, respectively. AS-7 increased the doubling times of the HeLa, melanoma, ovarian, and breast cancer derived cells by 1.3, 1.3, 1.6, and 3.1 fold, respectively (FIGS. 11 through 14)."}, "breast T47D cells [3]": {"tested_on": "breast T47D cells", "test": "FACS cell cycle analysis after propidium iodide staining of breast T47D cells", "assay_type": "cell-based, human", "conditions": "10 μM AS-7", "protocol": "FIG. 16 illustrates that AS-7 evokes accumulation of breast T47D cells in the G0-G1 phase of the cell cycle. T47D cells were harvested one, two, or three days after treatment with or without AS-7, stained with propidium iodide and subjected to analysis by FACS (Fluorescence Activated Cell Sorter).\nA single addition of 10 μM AS-7 for 1 day to 7 or more days was sufficient to evoke accumulation in the Go-G1 phase of the cell cycle (FIGS. 15 and 16) (data not shown). […] HeLa cells were treated with nocodazole (100 ng/ml) for 12 h which evoked accumulation of rounded, loosely attached cells in mitosis. The mitotic cells were harvested and treated with or without 10 μM AS-7 in the absence of nocodazole (Released, 16 hours)."}, "[4]": {"test": "Solubility in aqueous solutions", "assay_type": "physicochemical", "excerpt": "The ubiquitin-proteasome sensitizer compound and/or the ubiquitin-proteasome inhibitor compounds utilized in the method provided herein may also be modified by appending appropriate functionalities to enhance selective biological properties. Such modifications are known in the art and include those which increase biological penetration into a given biological system (e.g., blood, lymphatic system, central nervous system), increase oral availability, increase solubility to allow administration by injection, alter metabolism and alter rate of excretion. […] In some embodiments, AS-7 or an active derivative thereof can be dissolved at 50 mM AS-7 in dimethylsulfoxide containing 5% Cremaphor® EL detergent (Sigma Aldrich) and diluted approximately one thousand fold in a physiologic salt solution such as saline containing albumin in the range of the albumin concentration of blood. Alternatively, nanoparticles containing AS-7 or an active derivative thereof are administered to the subject. Nanoparticles can be made by mixing human albumin at a 3-4% solution in a salt solution of the desired pH and ionic strength, subjecting the solution to elevated pressure and releasing the solution via a small jet. Nanoparticles of optimal size can be purified by differential centrifugation. […]"}},
  "data": [
    {"smiles": "N#Cc1cccc(C(C(=O)NCC(c2ccccc2)c2ccccc2)N(CCc2c[nH]cn2)C(=O)c2ccccc2C(=O)c2ccccc2)c1", "note": "(stereo not shown) [AS-7]", "values": [
      {"measurement": "shift of NLVS concentration dependence (HeLa cell viability)", "setting": "HeLa cells; 10 μM AS-7, 48 hours, MTS", "result": "markedly shifted the NLVS concentration dependence to the left"},
      {"measurement": "HeLa cell viability", "setting": "HeLa cells; AS-7 alone", "result": "no loss of cell viability"},
      {"measurement": "Dose Reduction Index (DRI), combination of AS-7 with bortezomib", "setting": "HeLa cells; HeLa cells, 12 nM bortezomib", "result": 7.3},
      {"measurement": "Dose Reduction Index (DRI), combination of AS-7 with bortezomib", "setting": "HeLa cells; HeLa cells, 16 nM bortezomib", "result": 18},
      {"measurement": "Dose Reduction Index (DRI), combination of AS-7 with bortezomib", "setting": "HeLa cells; HeLa cells, 20 nM bortezomib", "result": 72},
      {"measurement": "increase in potency of the cytotoxic action of bortezomib by AS-7", "setting": "HeLa cells; HeLa cells, 10 μM AS-7", "result": "approximately 3.5 fold"},
      {"measurement": "potentiation of the cytotoxic action of bortezomib (loss of cell viability)", "setting": "[1]", "result": "markedly potentiates"},
      {"measurement": "increase in potency of the cytotoxic action of bortezomib by AS-7", "setting": "ovarian A2780 cells", "result": "approximately 3.1 fold"},
      {"measurement": "increase in potency of the cytotoxic action of bortezomib by AS-7", "setting": "Melanoma A2620 cells", "result": "approximately three"},
      {"measurement": "potentiation of the cytotoxic action of bortezomib", "setting": "159C cells", "result": "markedly potentiated"},
      {"measurement": "increase of doubling time", "setting": "breast T47D cells [2]", "result": 3.1, "unit": "fold"},
      {"measurement": "cell cycle distribution (FACS, propidium iodide)", "setting": "breast T47D cells [3]", "result": "evoked the accumulation"},
      {"measurement": "solubility in aqueous solutions", "setting": "[4]", "result": "limited solubility in aqueous solutions"}
    ]}
  ]
}
